Data as given in US11453647B2, “Benzimidazole derivatives as adenosine receptor antagonists” (Merck Patent GmbH, priority 2017, dated 2022).

Tests used:
Assay type in all cases: cell-based
human A3 receptor = target: T1, human A3 receptor (Homo sapiens, UniProt P0DMS8); assay: functional cAMP (HTRF) assay, recombinant CHO cells expressing human A3 receptor, forskolin, agonist IB-MECA
T1 construct: expressed in transfected cells; host or cells: CHO
T1 sequence (P0DMS8 1-318): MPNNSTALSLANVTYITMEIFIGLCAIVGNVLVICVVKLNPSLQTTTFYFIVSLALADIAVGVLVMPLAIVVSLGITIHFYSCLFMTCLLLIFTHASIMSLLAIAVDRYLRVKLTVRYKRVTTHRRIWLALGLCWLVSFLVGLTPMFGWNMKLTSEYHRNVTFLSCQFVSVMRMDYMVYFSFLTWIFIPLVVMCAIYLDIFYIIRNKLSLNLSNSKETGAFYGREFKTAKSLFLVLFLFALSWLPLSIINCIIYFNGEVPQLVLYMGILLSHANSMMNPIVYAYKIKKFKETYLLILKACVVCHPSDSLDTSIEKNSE
Method: (§1) The functional activities of human A2A, A2B, A1 and A3 receptors were determined by quantification of cAMP, being the second messenger for adenosine receptors.
(§2) For human A1 and A3 receptors, recombinant CHO cells, expressing either A1 or A3-receptor, were used. As both receptors couple to Gi proteins, the assay protocol was adapted:
(§3) Cells were seeded into 384-well plates, forskolin, test compounds and agonists (CPA for A1- and IB-MECA for A3-receptor) were added. After 30 min incubation, HTRF reagents (cAMP dynamic 2, Cis Bio) were added and the cellular cAMP levels were determined using the ENVISION (Perkin Elmer) plate reader. Obtained raw data were normalized against the inhibitor control and the neural control (DMSO) and the normalized data were fitted using GeneData software.

human A2A receptor = target: T2, human A2A receptor (Homo sapiens, UniProt P29274); assay: functional cAMP (HTRF) assay, recombinant HEK293 cells expressing human A2A receptor, agonist NECA
T2 construct: expressed in transfected cells; host or cells: HEK293
T2 sequence (P29274 whole entry): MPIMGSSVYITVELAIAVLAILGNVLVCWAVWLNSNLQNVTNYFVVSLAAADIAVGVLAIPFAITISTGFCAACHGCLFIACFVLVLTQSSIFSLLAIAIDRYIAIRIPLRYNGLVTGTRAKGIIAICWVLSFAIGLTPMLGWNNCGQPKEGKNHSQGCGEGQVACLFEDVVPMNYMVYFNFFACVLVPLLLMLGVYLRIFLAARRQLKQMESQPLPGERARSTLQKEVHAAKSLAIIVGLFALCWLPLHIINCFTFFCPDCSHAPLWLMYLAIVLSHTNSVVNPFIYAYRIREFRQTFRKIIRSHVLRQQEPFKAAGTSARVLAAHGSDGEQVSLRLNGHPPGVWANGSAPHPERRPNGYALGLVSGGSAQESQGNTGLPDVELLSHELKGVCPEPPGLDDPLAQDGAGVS

human A1 receptor = target: T3, human A1 receptor (Homo sapiens, UniProt P30542); assay: functional cAMP (HTRF) assay, recombinant CHO cells expressing human A1 receptor, forskolin, agonist CPA
T3 construct: expressed in transfected cells; host or cells: CHO
T3 sequence (P30542 1-326): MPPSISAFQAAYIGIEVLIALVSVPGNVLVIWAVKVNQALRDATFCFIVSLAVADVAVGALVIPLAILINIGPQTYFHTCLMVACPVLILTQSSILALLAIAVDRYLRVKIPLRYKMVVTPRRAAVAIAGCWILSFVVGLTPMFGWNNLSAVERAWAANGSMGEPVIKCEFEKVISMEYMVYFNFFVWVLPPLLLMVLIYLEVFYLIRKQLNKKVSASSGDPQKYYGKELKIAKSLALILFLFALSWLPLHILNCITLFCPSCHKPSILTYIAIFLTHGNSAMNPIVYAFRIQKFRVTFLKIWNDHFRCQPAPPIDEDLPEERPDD
Method: as §1, §2, §3

A2B receptors = target: T4, A2B receptors (Homo sapiens, UniProt P29275); assay: functional cAMP (HTRF) assay, recombinant HEK293 cells expressing human A2B receptor, agonist NECA; parameters: expressed in transfected cells; host or cells: HEK293
T4 sequence (P29275 1-332): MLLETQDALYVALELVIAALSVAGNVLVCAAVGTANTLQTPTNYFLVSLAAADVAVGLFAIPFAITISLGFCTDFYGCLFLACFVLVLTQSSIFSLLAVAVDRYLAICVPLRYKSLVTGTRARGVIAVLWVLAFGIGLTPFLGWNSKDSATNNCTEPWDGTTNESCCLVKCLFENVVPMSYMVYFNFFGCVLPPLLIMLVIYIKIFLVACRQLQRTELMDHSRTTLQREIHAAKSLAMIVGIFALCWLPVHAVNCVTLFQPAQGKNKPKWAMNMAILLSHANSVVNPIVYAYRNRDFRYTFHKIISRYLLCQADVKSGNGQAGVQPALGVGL

## COc1ccc(N2CCCCCC2)c2nc(NC(=O)N3CCC(C)(O)CC3)[nH]c12 [compound 216, N-[4-(azepan-1-yl)-7-methoxy-1H-1,3-benzodiazol-2-yl]-4-hydroxy-4-methylpiperidine-1-carboxamide]
Human A3 receptor
  IC50: > 1000 nM
Human A2A receptor
  IC50: < 100 nM
Human A1 receptor
  IC50: > 1000 nM

## COc1ccc(C2CCOCC2)c2nc(NC(=O)C3(C#N)CC3)[nH]c12 [compound 226, 1-cyano-N-[7-methoxy-4-(oxan-4-yl)-1H-1,3-benzodiazol-2-yl]cyclopropane-1-carboxamide]
Human A3 receptor
  IC50: > 1000 nM
Human A2A receptor
  IC50: < 100 nM
Human A1 receptor
  IC50: > 1000 nM

## COc1ccc(-c2cnn(C(F)F)c2)c2nc(NC(=O)N3CCC(C)(O)CC3)[nH]c12 [compound 229, N-{7-[1-(difluoromethyl)-1H-pyrazol-4-yl]-4-methoxy-1H-1,3-benzodiazol-2-yl}-4-hydroxy-4-methylpiperidine-1-carboxamide]
Human A3 receptor
  IC50: > 1000 nM
Human A2A receptor
  IC50: < 100 nM
Human A1 receptor
  IC50: > 1000 nM

## COCCOCCn1cc(-c2ccc(OC)c3nc(NC(=O)N4CCC(C)(O)CC4)[nH]c23)cn1 [compound 230, 4-hydroxy-N-(4-methoxy-7-{1-[2-(2-methoxyethoxy)ethyl]-1H-pyrazol-4-yl}-1H-1,3-benzodiazol-2-yl)-4-methylpiperidine-1-carboxamide]
Human A3 receptor
  IC50: > 1000 nM
Human A2A receptor
  IC50: < 100 nM
Human A1 receptor
  IC50: > 1000 nM

## COc1ccc(-c2cnn(-c3ccccn3)c2)c2[nH]c(NC(=O)N3CCC(C)(O)CC3)nc12 [compound 231, 4-hydroxy-N-{4-methoxy-7-[1-(pyridin-2-yl)-1H-pyrazol-4-yl]-1H-1,3-benzodiazol-2-yl}-4-methylpiperidine-1-carboxamide]
Human A3 receptor
  IC50: < 1000 nM
Human A2A receptor
  IC50: < 100 nM
Human A1 receptor
  IC50: < 1000 nM

## CCCC1(c2ccc(OC)c3[nH]c(NC(=O)c4cnn(C)c4)nc23)CC1 [compound 232, N-[7-methoxy-4-(1-propylcyclopropyl)-1H-1,3-benzodiazol-2-yl]-1-methyl-1H-pyrazole-4-carboxamide]
Human A3 receptor
  IC50: < 1000 nM
Human A2A receptor
  IC50: < 100 nM
Human A1 receptor
  IC50: > 1000 nM

## COc1ccc(-c2ccccc2)c2nc(NC(=O)c3cnc(N)s3)[nH]c12 [compound 258, 2-amino-N-(7-methoxy-4-phenyl-1H-1,3-benzodiazol-2-yl)-1,3-thiazole-5-carboxamide]
Human A2A receptor
  IC50: < 10 nM
A2B receptors
  IC50: < 10 nM
Human A1 receptor
  IC50: < 1000 nM

## COc1ccc(-c2cccnc2)c2nc(NC(=O)c3cnn(C)c3)[nH]c12 [compound 260, N-[7-methoxy-4-(pyridin-3-yl)-1H-1,3-benzodiazol-2-yl]-1-methyl-1H-pyrazole-4-carboxamide]
Human A2A receptor
  IC50: < 10 nM
A2B receptors
  IC50: < 10 nM
Human A1 receptor
  IC50: < 1000 nM

## COc1ccc(-c2ccncc2)c2[nH]c(NC(=O)c3c[nH]cn3)nc12 [compound 266, N-[4-methoxy-7-(pyridin-4-yl)-1H-1,3-benzodiazol-2-yl]-1H-imidazole-4-carboxamide]
Human A2A receptor
  IC50: < 100 nM
A2B receptors
  IC50: < 100 nM
Human A1 receptor
  IC50: > 1000 nM

## COCCOc1cccc(-c2ccc(OC)c3nc(NC(=O)c4c[nH]cn4)[nH]c23)c1 [compound 267, N-{4-methoxy-7-[3-(2-methoxyethoxy)phenyl]-1H-1,3-benzodiazol-2-yl}-1H-imidazole-4-carboxamide]
Human A2A receptor
  IC50: < 10 nM
A2B receptors
  IC50: < 10 nM
Human A1 receptor
  IC50: < 1000 nM

## COc1ccc(-c2ccc3cc[nH]c3c2)c2nc(NC(=O)N3CCC(C)(O)CC3)[nH]c12 [compound 272, 4-hydroxy-N-[4-(1H-indol-6-yl)-7-methoxy-1H-1,3-benzodiazol-2-yl]-4-methylpiperidine-1-carboxamide]
Human A2A receptor
  IC50: < 100 nM
A2B receptors
  IC50: < 100 nM
Human A1 receptor
  IC50: > 1000 nM

## COc1ccc(-c2ccccc2)c2nc(NC(=O)c3cnc4n3CCCC4)[nH]c12 [compound 291, N-(7-methoxy-4-phenyl-1H-1,3-benzodiazol-2-yl)-5H,6H,7H,8H-imidazo[1,2-a]pyridine-3-carboxamide]
Human A2A receptor
  IC50: < 100 nM
A2B receptors
  IC50: < 100 nM
Human A1 receptor
  IC50: < 1000 nM
